# Assay results as given in patent publication US10889565B2, “4-hydroxy-3-sulfonylpyridin-2(1H)-ones as APJ receptor agonists” (BRISTOL-MYERS SQUIBB COMPANY, priority 2016, dated 2021).
# Molecular target: T1, human APJ receptor (Homo sapiens, UniProt P35414)
# T1 construct: expressed in transfected cells
# T1 sequence (P35414 1-380): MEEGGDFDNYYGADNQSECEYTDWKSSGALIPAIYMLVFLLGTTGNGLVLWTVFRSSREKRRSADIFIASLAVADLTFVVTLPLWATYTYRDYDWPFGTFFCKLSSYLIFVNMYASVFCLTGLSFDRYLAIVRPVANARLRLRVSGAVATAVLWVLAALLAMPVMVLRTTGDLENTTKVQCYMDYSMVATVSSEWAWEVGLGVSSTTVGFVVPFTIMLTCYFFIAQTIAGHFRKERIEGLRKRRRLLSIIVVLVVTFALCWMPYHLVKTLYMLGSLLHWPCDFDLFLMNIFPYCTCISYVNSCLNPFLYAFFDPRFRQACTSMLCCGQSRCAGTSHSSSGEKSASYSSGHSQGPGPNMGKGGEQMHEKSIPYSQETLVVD
# Assay: Intracellular cAMP accumulation assay (APJ hcAMP, HTRF)
# Format: cell-based
# Details: HEK293 cells stably expressing human APJ receptor; inhibition of forskolin-mediated cAMP production; read-out: Human APJ cAMP EC50 Potency range
# Method: Intracellular cAMP Accumulation Assay
# HEK293 cells stably expressing human APJ receptor were used to assess the activity of compounds. Cultured cells were detached and resuspended in the cAMP Homogeneous Time-Resolved Fluorescence (HTRF) assay buffer (Cisbio cat; #62AM4PEJ). The assay was performed in 384-well assay plates (Perkin-Elmer; cat #6008289) according to assay protocol provided by the manufacturer. Serial dilutions of a compound together with assay buffer containing […] IBMX and 2 μM forskolin were added to each well containing 5,000 cells and incubated for 30 minutes at room temperature. Subsequently, cAMP D2 reagent was added in the lysis buffer followed by the EuK antibody (Cisbio; cat #62AM4PEJ) and incubated for 60 min. The fluorescence emission ratio was measured using fluorometer. The intracellular cAMP concentrations (compound-stimulated inhibition of forskolin-mediated cAMP production) were calculated by extrapolation from a standard curve using known cAMP concentrations. The EC50 values were obtained by fitting the data to a sigmoidal concentration-response curve with variable slope. The maximal achievable inhibition of forskolin-induced cAMP levels (Ymax) for each compound was expressed as relative percentage of inhibition attained using pyroglutamated apelin-13 ((Pyr1)apelin-13) peptide, which was set to 100%.
# The examples disclosed below were tested in the APJ in vitro assays described above and were found having human APJ cyclic AMP (hcAMP) activity. The EC50 value of each compound is presented at the end of the example description.
# The biological activity of the exemplified compounds of this invention determined by the assay described above is shown at the end of each example.
row,SMILES,EC50
1,"CCCCc1[nH]c(=O)c(S(=O)(=O)c2ccc(-c3ccc(F)cc3C)cn2)c(O)c1-c1c(OC)cccc1OC [Example 36, 6-butyl-5-(2,6-dimethoxy-phenyl)-3-((5-(4-fluoro-2-methylphenyl)pyridin-2-yl)sulfonyl)-4-hydroxy-pyridin-2(1H)-one]",0.01 to 10 nM
2,"CCCCc1[nH]c(=O)c(S(=O)(=O)c2ccc(Nc3ccc(F)nc3)cc2)c(O)c1-c1c(OC)cccc1OC [Example 28, 6-butyl-5-(2,6-dimethoxyphenyl)-3-((4-((6-fluoropyridin-3-yl)amino)phenyl)sulfonyl)-4-hydroxypyridin-2(1H)-one]",0.01 to 10 nM
3,"CCCCc1[nH]c(=O)c(S(=O)(=O)c2ccc(-c3ccc(F)cc3)cc2)c(O)c1-c1c(OC)cccc1OC [Example 13, 6-butyl-5-(2,6-dimethoxy-phenyl)-3-((4′-fluoro-[1,1′-biphenyl]-4-yl)sulfonyl)-4-hydroxy-pyridin-2(1H)-one]",10 to 100 nM
4,"CCCCc1[nH]c(=O)c(S(=O)(=O)c2ccc(-c3ccc(C(=O)NC4CC4)cc3)cn2)c(O)c1-c1c(OC)cccc1OC [Example 45, 4-(6-((6-butyl-5-(2,6-dimethoxy-phenyl)-4-hydroxy-2-oxo-1,2-dihydro-pyridin-3-yl)sulfonyl)pyridin-3-yl)-N-cyclopropyl-benzamide]",0.01 to 10 nM
5,"CCCCc1[nH]c(=O)c(S(=O)(=O)c2ccc(C)cn2)c(O)c1-c1c(OC)cccc1OC [Example 39, 6-butyl-5-(2,6-dimethoxy-phenyl)-4-hydroxy-3-((5-methyl-pyridin-2-yl)sulfonyl) pyridin-2(1H)-one]",0.01 to 10 nM
6,"COc1cccc(OC)c1-c1c(-c2ccc(F)cc2)[nH]c(=O)c(S(=O)(=O)c2ccc(-n3cc(Cl)ccc3=O)cc2)c1O [Example 23, 3-((4-(5-chloro-2-oxopyridin-1(2H)-yl)phenyl)sulfonyl)-5-(2,6-dimethoxy-phenyl)-6-(4-fluorophenyl)-4-hydroxy-pyridin-2(1H)-one]",0.01 to 10 nM

# The remaining lines, values ahead:
row,EC50,SMILES
1,0.01 to 10 nM,"CCCCc1[nH]c(=O)c(S(=O)(=O)c2ccc(-c3ccc(F)nc3C)cc2)c(O)c1-c1c(OC)cccc1OC [Example 5, 6-butyl-5-(2,6-dimethoxy-phenyl)-3-((4-(6-fluoro-2-methyl-pyridin-3-yl)phenyl)sulfonyl)-4-hydroxy-pyridin-2(1H)-one]"
2,0.01 to 10 nM,"CCOCc1[nH]c(=O)c(S(=O)(=O)c2ccc(-n3cc(Cl)ccc3=O)cc2)c(O)c1-c1c(OC)cccc1OC [Example 21, 3-((4-(5-chloro-2-oxopyridin-1(2H)-yl)phenyl)sulfonyl)-5-(2,6-dimethoxy-phenyl)-6-(ethoxymethyl)-4-hydroxy-pyridin-2(1H)-one]"
3,0.01 to 10 nM,"CCCCc1[nH]c(=O)c(S(=O)(=O)c2ccc(-c3ccc(F)nc3)cc2)c(O)c1-c1c(OC)cccc1OC [Example 6, 6-butyl-5-(2,6-dimethoxy-phenyl)-3-((4-(6-fluoro-pyridin-3-yl)phenyl)sulfonyl)-4-hydroxy-pyridin-2(1H)-one]"
4,0.01 to 10 nM,"CCCCc1[nH]c(=O)c(S(=O)(=O)c2ccc(NC(=O)OC(C)(C)C)cc2)c(O)c1-c1c(OC)cccc1OC [Example 8, tert-butyl (4-((6-butyl-5-(2,6-dimethoxy-phenyl)-4-hydroxy-2-oxo-1,2-dihydro-pyridin-3-yl)sulfonyl)phenyl) carbamate]"
